The source made the active and inactive calls. Cut-off read from the data, not from the text of the source: actives have a measured IC50 and inactives only a lower limit.

For the assay, the target named is Envelope glycoprotein gp160 (Human immunodeficiency virus 1, UniProt Q6QLK5). The experiment in a line: cell-free HIV fusion peptide-binding blockers – biochemical, uHTS, fluorescence dequenching, […] (AID 1986).
Sequence of Envelope glycoprotein gp160 (Q6QLK5 whole entry, the tested form may be a part): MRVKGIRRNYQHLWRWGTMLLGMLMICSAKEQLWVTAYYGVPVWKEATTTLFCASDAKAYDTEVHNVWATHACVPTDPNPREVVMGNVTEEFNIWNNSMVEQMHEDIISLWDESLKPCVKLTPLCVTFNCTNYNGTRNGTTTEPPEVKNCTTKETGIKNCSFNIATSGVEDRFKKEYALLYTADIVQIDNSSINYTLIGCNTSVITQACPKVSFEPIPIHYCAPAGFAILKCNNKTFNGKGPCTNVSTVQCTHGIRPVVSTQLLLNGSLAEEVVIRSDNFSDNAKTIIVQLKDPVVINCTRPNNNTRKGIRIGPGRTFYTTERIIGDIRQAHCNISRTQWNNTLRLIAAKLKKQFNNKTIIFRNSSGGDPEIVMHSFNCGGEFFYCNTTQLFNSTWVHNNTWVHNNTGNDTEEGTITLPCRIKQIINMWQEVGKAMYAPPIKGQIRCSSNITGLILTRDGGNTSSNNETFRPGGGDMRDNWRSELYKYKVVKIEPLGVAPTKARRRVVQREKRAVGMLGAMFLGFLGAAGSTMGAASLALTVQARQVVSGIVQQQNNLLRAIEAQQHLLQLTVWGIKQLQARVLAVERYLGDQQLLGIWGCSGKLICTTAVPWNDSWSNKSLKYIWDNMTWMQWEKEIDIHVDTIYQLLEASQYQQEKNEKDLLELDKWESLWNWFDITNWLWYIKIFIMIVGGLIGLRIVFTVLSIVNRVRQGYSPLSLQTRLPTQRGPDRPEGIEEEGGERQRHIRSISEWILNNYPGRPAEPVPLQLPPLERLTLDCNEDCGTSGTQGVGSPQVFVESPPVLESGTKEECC
Regarding `Cc1ccc(NC(S)=NNc2ccc([N+](=O)[O-])cc2S(=O)(=O)Nc2ccccc2C(=O)O)cc1C`, the 50% inhibitory concentration (IC50) (in general, the point on the concentration scale where inhibition reaches its midpoint) is 7.4 µM (active). The result for `O=C(O)/C(CC(=O)c1ccc(Cl)cc1)=N/Nc1ccc([N+](=O)[O-])cc1[N+](=O)[O-]` reads 20.8 µM (active). The result for `CC(C)CS(=O)(=O)C1=NN2C(=N)/C(=C\c3ccc(OC(=O)c4ccco4)cc3)C(=O)N=C2S1` reads 12.8 µM (active); that for `N#C/C(=C\c1ccc(O)c([N+](=O)[O-])c1)c1nc2ccccc2s1`, 25.2 µM (active).

Source of the values: ChEMBL document CHEMBL1201862, “PubChem BioAssay data set” (2004).
